Assay results reported in patent publication US9951088B2, “D2 receptor modulators and methods of use thereof in the treatment of diseases and disorders” (SUNOVION PHARMACEUTICALS INC., priority 2012, dated 2018).

Assays:
[1] = target: T1, long isoform of human D2 receptor (Homo sapiens, UniProt P14416); test: Arrestin Agonist Assay (DRD2L PathHunter CHO-K1 cells, β-arrestin recruitment); conditions: for Emax: CHO-K1, read-out: β-arrestin (agonist mode) Emax
[2] = target: T1, long isoform of human D2 receptor; test: Arrestin Antagonist Assay (DRD2L PathHunter CHO-K1 cells, vs EC80 dopamine); conditions: for Emax: CHO-K1, read-out: β-arrestin (antagonist mode) Imax
[3] = target: T1, long isoform of human D2 receptor; test: cAMP HTRF Agonist Assay (DRD2L PathHunter CHO-K1 cells, forskolin-stimulated); conditions: for Emax: CHO-K1, read-out: cAMP (agonist mode) Emax
Experimental: Cell Lines: Activities of the compounds were assessed using a Chinese Hamster Ovary (CHO—K1) cell line that recombinantly expressed the long isoform of human D2 receptor (DRD2L PathHunter cells). The D2 receptor DNA sequence was modified to contain a “ProLink” at its C-terminus which allowed complementation with an “enzyme acceptor” (EA)-tagged β-arrestin protein. The recruitment of the O-arrestin by the D2 receptor led to complementation of the ProLink and EA and formation of active β-galactosidase which generated a D2-specific signal that was measured. The cAMP assay was measured in the same D2-expressing cell line. The D2 receptor inhibited cAMP formation so that the basal levels of cAMP were increased by the addition of an adenylate cyclase stimulator, forskolin.
cAMP HTRF Agonist Assay: Two days prior to testing, a vial of high density stock of DRD2L PathHunter cells was thawed, and cells were diluted into 10 mL of growth media (Ham's F12/10% HI FBS/1% PSG) and used to seed a T225 flask containing 50 mL of growth media. Cells were cultured for 2 days.
On the day of the assay, cells were dissociated in 5 mL cell dissociation buffer (enzyme free—Invitrogen) for 10-15 minutes at 37° C. Dissociated cells were diluted with 10 mL of growth media and counted. Cell counts were routinely ˜2×10^7 per T225. Cells were then pelleted at 1500 rpm for 5 min. Supernatant was aspirated, and cells were re-suspended in HBSS/20 mM Hepes, pH 7.4 to a cell density of 1×10^6/mL.
cAMP levels were determined using the Cisbio HTRF method. HRTF reagents (cAMP-HTRF acceptor fluorophore (d2) conjugate and cryptate-labeled anti-cAMP antibody) were prepared according to maunfacturers instructions. 5 μL of each were added to each well of an assay plate and incubated for 1 h at RT. The plate was then read on an Envision reader using the HTRF protocol, and data were exported for analysis.
The agonist Emax results were expressed as a percent of the dopamine control response ((measured specific response/control specific agonist response)×100) obtained in the presence of test article. The EC50 values (concentration producing a half-maximal specific response) were determined by non-linear regression analysis of the concentration-response curves.

T1 sequence (P14416 whole entry, canonical isoform): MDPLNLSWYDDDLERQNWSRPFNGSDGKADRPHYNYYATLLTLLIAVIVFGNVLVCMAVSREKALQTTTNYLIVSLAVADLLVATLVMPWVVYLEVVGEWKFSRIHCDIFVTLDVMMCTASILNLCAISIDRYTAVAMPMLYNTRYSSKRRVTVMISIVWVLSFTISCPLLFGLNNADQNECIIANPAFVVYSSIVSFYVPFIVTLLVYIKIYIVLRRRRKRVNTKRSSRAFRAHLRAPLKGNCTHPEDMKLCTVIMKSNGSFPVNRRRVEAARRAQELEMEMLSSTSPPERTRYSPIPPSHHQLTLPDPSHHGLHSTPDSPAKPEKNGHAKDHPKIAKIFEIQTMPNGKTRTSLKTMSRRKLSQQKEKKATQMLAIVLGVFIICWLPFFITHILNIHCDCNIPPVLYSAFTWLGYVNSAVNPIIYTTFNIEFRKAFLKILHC

Structure (SMILES) | EC50 [1] [nM] | Emax [1] [%] | IC50 [2] [nM] | Emax [2] [%] | IC50 [3] [nM] | Emax [3] [%]
N#Cc1cccc2c1CN(CCCCOc1ccc3ccc(=O)[nH]c3n1)CC2 [Compound 64, 2-(4-((7-oxo-7,8-dihydro-1,8-naphthyridin-2-yl)oxy)butyl)-1,2,3,4-tetrahydroisoquinoline-8-carbonitrile] | < 10 | 10 to 25 | 10 to 100 | > 75 | < 10 | 25 to 50
CCn1cc2c(n1)CCN(CCCCOc1ccc3c(c1)NC(=O)CC3)C2 [Compound 34, 7-(4-(2-ethyl-6,7-dihydro-2H-pyrazolo[4,3-c]pyridin-5(4H)-yl)butoxy)-3,4-dihydroquinolin-2(1H)-one] | 100 to 1000 | 50 to 75 | > 10000 | < 10 | 100 to 1000 | 50 to 75
Cc1ccccc1N1CCN(CCCCOc2ccc3cn[nH]c3c2)CC1 [Compound 96, 6-(4-(4-(o-tolyl)piperazin-1-yl)butoxy)-1H-indazole] | 10 to 100 | 10 to 25 | 100 to 1000 | > 75 | 10 to 100 | 25 to 50
c1cc(OCCCCN2CCc3ccccc3C2)nc(-c2cc[nH]n2)c1 [Compound 44, 2-(4-((6-(1H-pyrazol-3-yl)pyridin-2-yl)oxy)butyl)-1,2,3,4-tetrahydroisoquinoline] | < 10 | 10 to 25 | 10 to 100 | > 75 | < 10 | 10 to 25
Oc1cccc2ccc(OCCCCN3CCN(c4ccccn4)CC3)nc12 [Compound 8, 2-(4-(4-(pyridin-2-yl)piperazin-1-yl)butoxy)quinolin-8-ol] | 10 to 100 | > 75 | > 10000 | < 10 | < 10 | > 75
c1ccc(N2CCN(CCCCOc3ccc4cn[nH]c4n3)CC2)nc1 [Compound 4, 6-(4-(4-(pyridin-2-yl)piperazin-1-yl)butoxy)-1H-pyrazolo[3,4-b]pyridine] | 10 to 100 | > 75 | > 10000 | < 10 | < 10 | > 75
O=C1NCCc2ccc(OCCCCN3CCc4ccccc4C3)nc2N1 [Compound 83, 8-(4-(3,4-dihydroisoquinolin-2(1H)-yl)butoxy)-4,5-dihydro-1H-pyrido[2,3-d][1,3]diazepin-2(3H)-one] | > 10000 | < 10 | 10 to 100 | > 75 | > 10000 | < 10
